Data from patent publication US20150018376A1, “PYRIMIDIN-4-YL)OXY)-1H-INDOLE-1-CARBOXAMIDE DERIVATIVES AND USE THEREOF” (NOVARTIS AG, priority 2013, published 2015).

Key:
[1] = target: T1, KDR (GST-KDR(807-1356)) (Homo sapiens, UniProt P35968); experiment: KDR protein kinase activity, LanthaScreen TR-FRET; type: biochemical; settings: 2 μM ATP, 1 hour incubation
T1 construct: GST-KDR(807-1356), internally produced recombinant protein; GST (N); made in house
Description: A generic assay set-up has been run at room temperature on a liquid handling robot. To the assay plates containing 50 nL compound or control solutions, 4.5 μL of ATP mix (20 mM Tris-HCl pH7.4, 1 mM DTT, 0.025% Tween20, 0.01 mM Na3VO4, 10 mM MgCl2, 1 mM MnCl2, and 4 μM ATP) were added per well. Subsequently, 4.5 μL of enzyme-substrate mix (20 mM Tris-HCl pH7.4, 1 mM DTT, 0.025% Tween20, 0.01 mM Na3VO4, 10 mM MgCl2, 1 mM MnCl2, 0.5% BSA, 100 nM fluorescein labeled poly(EAY), and 0.76 nM KDR (GST-KDR(807-1356), internally produced recombinant protein) were added.
The final reaction volume is 9.05 μL with final reagent concentrations of 20 mM Tris-HCl pH7.4, 1 mM DTT, 0.025% Tween20, 0.01 mM Na3VO4, 10 mM MgCl2, 1 mM MnCl2, including a generic concentration of 2 μM ATP, 50 nM of substrate fluorescein labeled poly(EAY), and 0.38 nM enzyme.
After 1 hour of incubation the kinase reactions have been stopped by the addition of 4.5 μL of stop solution (20 mM Tris-HCl pH7.4, 1 mM DTT, 0.025% Tween20, 0.01 mM Na3VO4, 50 mM EDTA) immediately followed by 4.5 μL of antibody solution (20 mM Tris-HCl pH7.4, 1 mM DTT, 0.025% Tween20, 0.01 mM Na3VO4, 1.72 μg/ml Tb-PY20).
After an incubation time of 45 min in the dark, the plates were transferred into a fluorescence reader and counted in time resolved fluorescence mode (settings according to the reagent supplier's recommendation). The effect of compound on the enzymatic activity was obtained from end point measurement.

[2] = tested on: human hepatocytes; experiment: Hepatocyte viability during incubation (ViaCount assay); type: cell-based; settings: 10 μmol/L, percent viable cells relative to total cells
Description: (§1) After thawing the cryopreserved hepatocytes, the viable cells were enriched by centrifugation in HepatoZYME cell culture medium (Gibco Invitrogen). For this purpose, the cells were added to 45 mL of a 37° C. warm HepatoZYME, and centrifuged at room temperature, at 50 g for 5 min. The supernatant containing dead cells was discarded and the cells in the pellet were re-suspended in HepatoZYME.
(§2) The viability of the re-suspended hepatocytes was determined by a Guava EasyCyte™ Mini system using the ViaCount® assay as described by the supplier (Guava Technologies, Hayward, Calif., USA). After cell counting, the cell concentration was adjusted to approx. 1·10^6 viable cells/mL by adding HepatoZYME. Subsequently, the incubations were started by adding [^14C] N-(1-methyl-5-(trifluoromethyl)-1H-pyrazol-3-yl)-5-(6-((methylamino)methyl)pyrimidin-4-yloxy)-1H-indole-1-carboxamide and non-labeled N-(1-methyl-5-(trifluoromethyl)-1H-pyrazol-3-yl)-5-(6-((methylamino)methyl)pyrimidin-4-yloxy)-1H-indole-1-carboxamide as a solution in DMSO. The final concentration of DMSO in the incubations was 0.1% (v/v).
(§3) To check the chemical stability of [^14C] N-(1-methyl-5-(trifluoromethyl)-1H-pyrazol-3-yl)-5-(6-((methylamino)methyl)pyrimidin-4-yloxy)-1H-indole-1-carboxamide under the incubation conditions, the compound was incubated at a concentration of 10 μmol/L in HepatoZYME without hepatocytes. A second series of control incubations was performed with hepatocytes of all species in the absence of the test compound to investigate the effect of the latter on the viability. These experiments were performed in a 12×6 mL MultiWell™ plate (Art. 393503, Beckton Dickinson).
(§4) The incubations were performed at 37° C. under a humidified atmosphere of 95% relative humidity and 5% CO2 in a Heraeus incubator/cytoperm (Kendro Laboratory Products AG, Zürich, Switzerland). During the incubations, the plates and flasks were shaken at 300 strokes per minute. The viability of the hepatocytes was determined after 6 h (end of incubation).

[3] = tested on: monkey hepatocytes; experiment: as above; type: cell-based; settings: 10 μmol/L, percent viable cells relative to total cells
Description: as §1, §2, §3, §4

[4] = tested on: rabbit hepatocytes; experiment: as above; type: cell-based; settings: 10 μmol/L, percent viable cells relative to total cells
Description: as §1, §2, §3, §4

[5] = tested on: rat hepatocytes; experiment: as above; type: cell-based; settings: 10 μmol/L, percent viable cells relative to total cells
Description: as §1, §2, §3, §4

[6] = tested on: hepatocytes from rat, rabbit, monkey, and human; experiment: Hepatocyte viability during incubation, all species summarised; type: cell-based; settings: 10 μmol/L, range over four species; initially 70-93%; controls without compound 4-21%
Description: as §1
as §2, with “(v/v). […]” for “(v/v).”
The incubations were performed at 37° C. under a humidified atmosphere of 95% relative humidity and 5% CO2 in a Heraeus incubator/cytoperm (Kendro Laboratory Products AG, Zürich, Switzerland). […] The viability of the hepatocytes was determined after 6 h (end of incubation).

[7] = Control incubations in the absence of hepatocytes or liver microsomes (chemical stability); type: in vitro ADME; settings: 10 μmol/L in HepatoZYME without hepatocytes (6 h) or buffer without microsomes (60 min), 37° C.
Description: as §3
Microsomal incubations for metabolite profiles were performed at 10 μmol/L of [^14C] N-(1-methyl-5-(trifluoromethyl)-1H-pyrazol-3-yl)-5-(6-((methylamino)methyl)pyrimidin-4-yloxy)-1H-indole-1-carboxamide (approx. 50% radiolabeled) with one time point investigated (60 min). Incubations were performed at 37° C. in 0.1 mol/L sodium phosphate buffer pH 7.4. The final concentrations in the incubation cocktail were: 4 mmol/L UDPGA (Sigma-Aldrich), 1 mmol/L β-NADPH (Sigma-Aldrich), 5 mmol/L MgCl2, and 60 μg alamethicin (Sigma-Aldrich) per mg microsomal protein. The system was left to incubate for 10 min before adding the test compound to allow the pore formation with the alamethicin. The metabolic reaction was started by the addition of [^14C] […]

[8] = Stability of crystalline form; type: physicochemical; settings: HCl salt
Excerpt: Crystalline form B of the HCl salt of N-(1-methyl-5-(trifluoromethyl)-1H-pyrazol-3-yl)-5-((6-((methylamino)methyl)pyrimidin-4-yl)oxy)-1H-indole-1-carboxamide was obtained using the same procedure as in Example 5 above.

T1 sequence (P35968 807-1356): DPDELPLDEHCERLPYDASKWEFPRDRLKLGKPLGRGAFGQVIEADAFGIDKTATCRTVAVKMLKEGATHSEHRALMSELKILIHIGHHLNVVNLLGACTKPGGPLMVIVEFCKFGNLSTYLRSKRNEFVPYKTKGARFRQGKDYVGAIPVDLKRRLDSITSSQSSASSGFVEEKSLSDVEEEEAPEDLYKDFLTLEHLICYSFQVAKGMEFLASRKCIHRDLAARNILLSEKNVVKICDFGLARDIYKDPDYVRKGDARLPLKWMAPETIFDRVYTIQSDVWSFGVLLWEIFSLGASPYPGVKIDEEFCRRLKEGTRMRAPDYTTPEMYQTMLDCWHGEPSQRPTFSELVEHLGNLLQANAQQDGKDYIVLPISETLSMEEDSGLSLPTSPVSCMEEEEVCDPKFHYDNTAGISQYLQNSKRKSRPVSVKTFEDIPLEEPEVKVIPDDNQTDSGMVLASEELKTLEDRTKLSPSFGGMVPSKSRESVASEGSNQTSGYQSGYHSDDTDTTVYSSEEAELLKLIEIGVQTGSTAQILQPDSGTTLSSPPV

**Q.** For `Cn1nc(NC(=O)n2ccc3cc(Oc4cc(C(N)=O)ncn4)ccc32)cc1C(F)(F)F` [Example 2, 5-((6-Carbamoylpyrimidin-4-yl)oxy)-N-(1-methyl-5-(trifluoromethyl)-1H-pyrazol-3-yl)-1H-indole-1-carboxamide], which IC50 [1] is on record?
**A.** Its IC50 is 20 nM.

**Q.** For `Cn1nc(NC(=O)n2ccc3cc(Oc4cc(/C=[N+](/C)[O-])ncn4)ccc32)cc1C(F)(F)F` [Example 1, (Z)-N-((6-((1-((1-methyl-5-(trifluoromethyl)-1H-pyrazol-3-yl)carbamoyl)-1H-indol-5-yl)oxy)pyrimidin-4-yl)methylene)methanamine oxide], which IC50 [1] is on record?
**A.** The IC50 was less than 1 nM.

**Q.** With `Cn1nc(NC(=O)n2ccc3cc(Oc4cc(CN)ncn4)ccc32)cc1C(F)(F)F` [Example 3, 5-(6-(aminomethyl)pyrimidin-4-yloxy)-N-(1-methyl-5-(trifluoromethyl)-1H-pyrazol-3-yl)-1H-indole-1-carboxamide] as the compound, how does the IC50 [1] read?
**A.** Its IC50 is less than 1 nM.

**Q.** With `CNCc1cc(Oc2ccc3c(ccn3C(=O)Nc3cc(C(F)(F)F)n(C)n3)c2)ncn1` [[^14C] N-(1-methyl-5-(trifluoromethyl)-1H-pyrazol-3-yl)-5-(6-((methylamino)methyl)pyrimidin-4-yloxy)-1H-indole-1-carboxamide] as the compound, how does the “Viability at 6 h” value [2] read?
**A.** The value was 25%.

**Q.** What about the “Viability at 6 h” value [3] of the same compound?
**A.** Its value is 42%.

**Q.** And the “Viability at 6 h” value [4]?
**A.** The value was 8%.

**Q.** What about the “Viability at 6 h” value [5] of the same compound?
**A.** The value was 22%.

**Q.** What about the “viability of the hepatocytes after 6 hours” value [6] of the same compound?
**A.** The value was 8-42%.

**Q.** What about the “chemical stability in the incubation media” value [7] of the same compound?
**A.** The value was “confirmed the stability of the compound”.

**Q.** With `CNCc1cc(Oc2ccc3c(ccn3C(=O)Nc3cc(C(F)(F)F)n(C)n3)c2)ncn1` [Form B, N-(1-methyl-5-(trifluoromethyl)-1H-pyrazol-3-yl)-5-((6-((methylamino)methyl)pyrimidin-4-yl)oxy)-1H-indole-1-carboxamide] as the compound, how does the “stability of the crystalline form” value [8] read?
**A.** The value was “transient form that converts back to Form A”.
